Masking and Harmonizing data for 16 compounds are collected here from patent US20060159639A1, “Pseudo body odor composition and perfume composition for inhibiting body odor” (priority 2003, published 2006).

Structures are written as SMILES.

The nature of this test: Suppression test of Experimental Example 1: masking and harmonizing effect in a cup, four expert panelists.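 As to Harmonizing: score 1 means in harmony 0 indefinite and −1 not in harmony.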 To be noted: 200 μl pseudo body odor composition of Example 4 and 10 μl perfume on filter papers in sealed about 500 ml cup, after 30 minutes, four expert panelists; for Masking: scale 0-3; for Harmonizing: scale −1 to 1. As to the method: In the present invention, the selection of the above component (I), component (II) and component (III) was carried out as follows. That is, one of the pseudo body odor compositions mentioned above and a target fragrance component were mixed and left at room temperature for 30 minutes. Thereafter, evaluations of the masking and harmonizing effects to the acid odor were carried out by four expert panelists.
After 30 minutes, a hole of about 1 cm in diameter was formed in the aluminum foil and the investigations of masking effect and the harmonizing effect were carried out according to following evaluation criteria by four expert panelists.
3: Excellent in the masking.
2: Substantially excellent in the masking.
1: Slightly sensible of the body odor (sweat odor and armpit odor).
0: Sensible of the body odor (sweat odor and armpit odor) (insufficient in the masking)

Consider `O=C1CCCC=CCCCCCCCCCC1` [Ambretone, 5-cyclohexadecene-l-one], for which the Masking amounted to 1.5 points and the Harmonizing is reported as 0.

`C=CCc1ccc(O)c(OC)c1` [Eugenol] yielded a Masking of 1.5 points and a Harmonizing of 0.

In turn, `CCOC(=O)CC1(C)OCCO1` [Fraistone, ethyl (2-methyl-[1,3]dioxolane-2-yl) acetate] gave a Masking of 1 and a Harmonizing of −1.

As for `CC(=CCC1CC=C(C)C1(C)C)CO` (centres unmarked) [Sandalmysore core, 2-methyl-4-(2,2,3-trimethyl-3-cyclopentene-1-yl)-2-butene-1-ol], the Masking came to 2.5 points and the Harmonizing was 1.

For `C=CC(C)(CCC=C(C)C)OC(C)=O` (centres unmarked) [Linalyl acetate], the Masking was 1 and the Harmonizing was −1.

Compound `CO[C@]1(C)CC[C@@]23C[C@@H]1C(C)(C)[C@@H]2CC[C@H]3C` [Cedryl methyl ether] returned a Masking of 1 and a Harmonizing of −1.

Take `CC(=O)/C=C/C1=C(C)CCCC1(C)C` [β-Ionone]: the Masking amounted to 1.5 points and the Harmonizing is −1.

For the compound `CC(C)=CCCC(C)C=O` (centres unmarked) [2,6-Dimethyl-5-heptenal], the Masking came out at 3 and the Harmonizing is 1.

Compound `CC(C)CC1CC(C)(O)CCO1` (centres unmarked) [Dihydroroseoxide, 4-methyl-2-(2-methylpropyl)tetrahydro-2H-4-pyranol] gave a Masking of 1.5 points and a Harmonizing of 0.

For `CC1=CC(C)C(C=O)C(C)C1` (centres unmarked) [Isocyclocitral, trimethyl cyclohexene carbalehyde], the Masking came to 2.5 points and the Harmonizing was 1.

Regarding `CC(C)(O)Cc1ccccc1` [α,α-Dimethylphenylethyl, α,α-dimethyl phenylethyl alcohol], the Masking was found to be 0.5 points and the Harmonizing is −1.

In the case of `Cc1ccc(C(C)C)c(O)c1` [Thymol], the Masking was found to be 1 and the Harmonizing is recorded as −1.

`CC1=CC(C)C(C=O)CC1` (centres unmarked) [Tripral, Dimethyl tetrahydrobenzaldehyde] gave a Masking of 3 and a Harmonizing of 1.

Turning to `CCOC(=O)CC(C)=O` [Ethyl acetoacetate], the Masking is 3 and the Harmonizing is reported as 1.

The compound `CC(C)=CC1CC(C)CCO1` (centres unmarked) [Rose oxide] gave a Masking of 3 and a Harmonizing of 1.

`CCCCCCCC=O` [Octanal] displayed a Masking of 3 and a Harmonizing of 1.
